Measured values taken from patent US8921552B2, “Benzothiazole hybrids useful as anticancer agents and process for the preparation thereof” (Council of Scientific & Industrial Research, priority 2011, dated 2014).

Experiments:
IGR-OV-1 = experiment: In vitro cytotoxicity, SRB assay, ovarian cancer cell line IGR-OV-1; format: cell-based, human; details: Homo sapiens, IGROV-1, IGR-OV-1 (ovarian), read-out: % of growth inhibition; for inhibition at 10 µM: 48 h exposure
Source text: (§1) The benzothiazole hybrids has been tested against seven human tumor cell lines derived from six cancer types (lung cancer, colon cancer, CNS cancer, ovarian cancer, prostate cancer and breast cancer). For these compounds results are expressed as percent of cell growth inhibition relative to that of untreated control cells.

SW-620 = experiment: In vitro cytotoxicity, SRB assay, colon cancer cell line SW-620; format: cell-based; details: Homo sapiens, SW-620 (colon), 48 h exposure, read-out: % of growth inhibition
Method: as §1, with “cells. A protocol of 48 h continuous drug exposure has been used, and a sulforhodamine B (SRB) protein assay was used to estimate cell viability or growth.” for “cells.”
(§2) The compounds 9b, 9h, 9m, 9r, 15c, 15h, 15m, 15r, 10b, 10h, 10m, 10r, 16c, 16h and 16m were evaluated for in vitro anticancer activity against seven human tumor cells derived from six cancer types (lung cancer, colon cancer, CNS cancer, ovarian cancer, prostate cancer and breast cancer) at concentration of 10 μM and the results are shown in Table 1.

A-549 = experiment: In vitro cytotoxicity, SRB assay, lung cancer cell line A-549; format: cell-based, human; details: Homo sapiens, A549, A-549 (lung), read-out: % of growth inhibition; for inhibition at 10 µM: 48 h exposure
Source text: as §1

human tumor cell lines = experiment: In vitro anticancer activity, panel of seven human tumor cell lines (SRB assay); format: cell-based; details: for inhibition at 10 µM: Homo sapiens, range over the cell lines, exposure period of at least 48 hrs, read-out: percentage growth inhibition for invitro anticancer activity; for cytotoxic activity in words: various human tumour cell lines
Method: as §1, with “cells. A protocol of 48 h continuous drug exposure has been used, and a sulforhodamine B (SRB) protein assay was used to estimate cell viability or growth.” for “cells.”
as §2

PC-3 = experiment: In vitro cytotoxicity, SRB assay, prostate cancer cell line PC-3; format: cell-based, human; details: Homo sapiens, PC-3 (prostate), read-out: % of growth inhibition; for inhibition at 10 µM: 48 h exposure
Source text: as §1

MCF7 = experiment: In vitro cytotoxicity, SRB assay, breast cancer cell line MCF7; format: cell-based, human; details: Homo sapiens, read-out: % of growth inhibition; for inhibition at 10 µM: 48 h exposure
Source text: as §1

SF-295 = experiment: In vitro cytotoxicity, SRB assay, CNS cancer cell line SF-295; format: cell-based, human; details: Homo sapiens, SF-295 (CNS), read-out: % of growth inhibition; for inhibition at 10 µM: 48 h exposure
Source text: as §1

Colo-205 = experiment: In vitro cytotoxicity, SRB assay, colon cancer cell line Colo-205; format: cell-based, human; details: Homo sapiens, Colo-205 (colon), read-out: % of growth inhibition
Source text: as §1

Question: For `COc1cc(-c2nc3ccccc3s2)ccc1OCCCCN1CCN(CCCCOc2cc(/C=C\c3cc(OC)c(OC)c(OC)c3)ccc2OC)CC1` [Compound 15c, 2-[3-methoxy-4-({4-[4-(4-{2-methoxy-5-[(Z)-2-(3,4,5-trimethoxyphenyl)-1-ethenyl]phenoxy}butyl)piperazino]butyl}oxy)phenyl]-1,3-benzothiazole], which inhibition at 10 µM (IGR-OV-1) is on record?
Answer: Its inhibition at 10 µM is 95%.

Question: And the inhibition at 10 µM (SW-620)?
Answer: Its inhibition at 10 µM is 86%.

Question: And the inhibition at 10 µM (A-549)?
Answer: Its inhibition at 10 µM is 88%.

Question: What about the inhibition at 10 µM (human tumor cell lines) of the same compound?
Answer: Its inhibition at 10 µM is 1 to 100%.

Question: And the “cytotoxic activity in words” value (human tumor cell lines)?
Answer: The value was “increase in activity”.

Question: And the inhibition at 10 µM (PC-3)?
Answer: The inhibition at 10 µM was 53%.

Question: What about the inhibition at 10 µM (MCF7) of the same compound?
Answer: The inhibition at 10 µM was 95%.

Question: And the inhibition at 10 µM (SF-295)?
Answer: Its inhibition at 10 µM is 99%.

Question: With `COc1cc(-c2nc3ccccc3s2)ccc1OCCCOc1cc(/C=C\c2cc(OC)c(OC)c(OC)c2)ccc1OC` [Compound 9b, 2-[3-methoxy-4-(3-{2-methoxy-5-[(Z)-2-(3,4,5-trimethoxyphenyl)-1-ethenyl]phenoxy}propoxy)phenyl]-1,3-benzothiazole] as the compound, how does the inhibition at 10 µM (IGR-OV-1) read?
Answer: The inhibition at 10 µM was 54%.

Question: What about the inhibition at 10 µM (A-549) of the same compound?
Answer: The inhibition at 10 µM was 69%.

Question: What about the inhibition at 10 µM (human tumor cell lines) of the same compound?
Answer: Its inhibition at 10 µM is 1 to 100%.

Question: And the inhibition at 10 µM (PC-3)?
Answer: The inhibition at 10 µM was 78%.

Question: What about the inhibition at 10 µM (MCF7) of the same compound?
Answer: Its inhibition at 10 µM is 57%.

Question: What about the inhibition at 10 µM (Colo-205; 10 μM, 48 h exposure) of the same compound?
Answer: The inhibition at 10 µM was 16%.

Question: What about the inhibition at 10 µM (SF-295) of the same compound?
Answer: The inhibition at 10 µM was 53%.

Question: How did the inhibition at 1 µM (IGR-OV-1; reference drug at 1 μM) turn out when `CC(=O)O[C@H]1C(=O)[C@@]2(C)[C@H]([C@H](OC(=O)c3ccccc3)[C@]3(O)C[C@H](OC(=O)[C@H](O)[C@@H](NC(=O)c4ccccc4)c4ccccc4)C(C)=C1C3(C)C)[C@]1(OC(C)=O)CO[C@@H]1C[C@@H]2O` [Paclitaxel, reference compound] was run?
Answer: Its inhibition at 1 µM is 44%.

Question: What about the inhibition at 1 µM (A-549; reference drug at 1 μM) of the same compound?
Answer: The inhibition at 1 µM was 62%.

Question: What about the inhibition at 1 µM (PC-3; reference drug at 1 μM) of the same compound?
Answer: The inhibition at 1 µM was 35%.

Question: And the inhibition at 1 µM (MCF7; reference drug at 1 μM)?
Answer: Its inhibition at 1 µM is 59%.

Question: What about the inhibition at 1 µM (Colo-205; reference drug at 1 μM) of the same compound?
Answer: Its inhibition at 1 µM is 95%.

Question: And the inhibition at 1 µM (SF-295; reference drug at 1 μM)?
Answer: The inhibition at 1 µM was 59%.

Question: Which results are given for `COc1cc(-c2nc3ccccc3s2)ccc1OCCCCN1CCN(CCCCOc2cc(/C=C/C(=O)c3cc(OC)c(OC)c(OC)c3)ccc2OC)CC1` [Compound 16c, (E)-3-(3{-[4-(4-{4-[4-(1,3-benzothiazol-2-yl)-2-methoxyphenoxy]butyl}piperazino)butyl]oxy}-4-methoxyphenyl)-1-(3,4,5-trimethoxyphenyl)-2-propen-1-one]?
Answer: inhibition at 10 µM (IGR-OV-1): 67%; inhibition at 10 µM (SW-620): 0%; inhibition at 10 µM (A-549): 58%; inhibition at 10 µM (human tumor cell lines): 1 to 100%; inhibition at 10 µM (PC-3): 24%; inhibition at 10 µM (MCF7): 69%; inhibition at 10 µM (SF-295): 24%

Question: Which results are given for `COc1ccc(/C=C/C(=O)c2cc(OC)c(OC)c(OC)c2)cc1OCCCCOc1cccc(-c2nc3ccccc3s2)c1` [Compound 10r, (E)-3-(3-{4-[3-(1,3-benzothiazol-2-yl)phenoxy]butoxy}-4-methoxyphenyl)-1-(3,4,5-trimethoxyphenyl)-2-propen-1-one]?
Answer: inhibition at 10 µM (IGR-OV-1): 0%; inhibition at 10 µM (SW-620): 0%; inhibition at 10 µM (A-549): 41%; inhibition at 10 µM (human tumor cell lines): 1 to 100%; inhibition at 10 µM (PC-3): 1%; inhibition at 10 µM (MCF7): 14%; inhibition at 10 µM (SF-295): 21%

Question: With `COc1cc(-c2nc3ccccc3s2)ccc1OCCCOc1cc(/C=C/C(=O)c2cc(OC)c(OC)c(OC)c2)ccc1OC` [Compound 10b, (E)-3-(3-{3-[4-(1,3-benzothiazol-2-yl)-2-methoxyphenoxy]propoxy}-4-methoxyphenyl)-1-(3,4,5-trimethoxyphenyl)-2-propen-1-one] as the compound, how does the inhibition at 10 µM (IGR-OV-1) read?
Answer: The inhibition at 10 µM was 21%.

Question: And the inhibition at 10 µM (SW-620)?
Answer: The inhibition at 10 µM was 0%.

Question: And the inhibition at 10 µM (A-549)?
Answer: Its inhibition at 10 µM is 66%.

Question: And the inhibition at 10 µM (human tumor cell lines)?
Answer: The inhibition at 10 µM was 1 to 100%.

Question: And the inhibition at 10 µM (PC-3)?
Answer: The inhibition at 10 µM was 5%.

Question: And the inhibition at 10 µM (MCF7)?
Answer: Its inhibition at 10 µM is 19%.

Question: And the inhibition at 10 µM (SF-295)?
Answer: The inhibition at 10 µM was 51%.

Question: How did the inhibition at 10 µM (IGR-OV-1) turn out when `COc1ccc(/C=C\c2cc(OC)c(OC)c(OC)c2)cc1OCCCCN1CCN(CCCCOc2cccc(-c3nc4ccccc4s3)c2)CC1` [Compound 15r, 2-[3-({4-[4-(4{-2-methoxy-5-[(Z)-2-(3,4,5-trimethoxyphenyl)-1-ethenyl]phenoxy}butyl)piperazino]butyl}oxy)phenyl]-1,3-benzothiazole] was run?
Answer: The inhibition at 10 µM was 92%.

Question: What about the inhibition at 10 µM (SW-620) of the same compound?
Answer: The inhibition at 10 µM was 99%.

Question: What about the inhibition at 10 µM (A-549) of the same compound?
Answer: The inhibition at 10 µM was 96%.

Question: And the inhibition at 10 µM (human tumor cell lines)?
Answer: Its inhibition at 10 µM is 1 to 100%.

Question: What about the “cytotoxic activity in words” value (human tumor cell lines) of the same compound?
Answer: The value was “increase in activity”.

Question: And the inhibition at 10 µM (PC-3)?
Answer: Its inhibition at 10 µM is 70%.

Question: And the inhibition at 10 µM (MCF7)?
Answer: Its inhibition at 10 µM is 88%.

Question: What about the inhibition at 10 µM (SF-295) of the same compound?
Answer: The inhibition at 10 µM was 98%.
